Assay results as given in US20250177392A1, “BROAD SPECTRUM INHIBITORS OF CYTOMEGALOVIRUS” (MICROBIOTIX, INC., priority 2022, published 2025).

Columns and labels:
[1] = Cytotoxicity (CC50) against Hela cells for 3 d; assay type: cell-based; conditions: human
[2] = test system: GpCMV 22122; test: Herpes virus panel neutralization, GpCMV; assay type: cell-based, Guinea pig cytomegalovirus
Method: (§1) To determine the specificity of MBX-4992, additional neutralization experiments were conducted using a panel of herpes viruses performed in the presence of MBX-4992. […] Collectively, the antiviral activity of MBX-4992 is equivalent to that of GCV indicating specific inhibition of CMV replication.

[3] = Murine liver microsome stability; assay type: in vitro ADME; conditions: % remaining after 30 min at 37° C. in the presence of NADPH
[4] = test system: AD169 CMV virus; test: Time-of-addition assay; assay type: cell-based, Human cytomegalovirus; conditions: 10 μM added -60 to 90 minutes post-infection, infection quantified at 24 hpi
Method: FIG. 5A-C are graphs showing that NAPA compounds target an early, post-attachment step of the CMV virus. (A) MBX-4992 (10 μM) was added along a time course post infection with AD169 (MOI 0.2) from −60 to 90 minutes after virus addition to NHDF fibroblasts. Infection at 24 hours was quantified after an immunostain with an anti-IE1 antibody. Percent infection was normalized to untreated cells where media was added either-60 or 90 minutes after virus addition. A schematic of the experimental design is shown.
NHDF cells (10^4) were plated in a 96-well plate overnight. A working stock of MBX-4992 at 20 μM was used as a 2×to achieve a final concentration of 10 μM. […] At […], the cells were fixed with 4% paraformaldehyde, stained with a rabbit anti-IE1 antibody followed by an anti-rabbit Alexa 647, and analyzed using the Celigo cytometer. Using the −60 DMSO treated cells as 100% infectivity, the percent relative to maximum infection was determined from cells treated with drug at different time points.
To further analyze the step of CMV entry targeted by NAPA compound MBX-4992, a time of addition assay was performed. MBX-4992 (10 μM) was added at various times during […] infection (−60, 0, 15, 30, 60, and 90 minutes post-infection (mpi)) with AD169 CMV virus and viral infection was quantified at 24 hpi. […]

[5] = test system: AD169^R; test: Cells pre-incubation / washout study; assay type: cell-based, Human cytomegalovirus
Method: (C) NHDF cells were pre-incubated with DMSO, MBX-4992 or heparin prior to virus addition. After addition of AD169^R (MOI 0.2) for 30 min, media was either unchanged or replaced with media containing DMSO, MBX-4992, or heparin. Virus infection was quantified at 24 hpi by GFP fluorescence. Percent infection was normalized to untreated cells. Statistical tests were performed using ordinary one-way ANOVA with multiple comparisons to DMSO treated cells as a control and a Dunnett's post-test: *, p<0.05; ****, p<0.0001.
NHDF cells (10^4) plated overnight in a 96-well plate were pretreated with MBX-4992 (10 μM), heparin (50 μg/mL) or DMSO for 1 hour at 37° C. The plate was then placed at 4° C. for 5 minutes followed by the addition of AD169^R CMV virus for 30 minutes. 2/3rd of the samples were aspirated post binding. Half of those samples received DMSO media, regardless of the drug the cells were previously exposed to. The remaining wells received either MBX-4992 (10 μM) or Heparin (50 μg/mL) overnight. At 18 hpi, the cells were fixed with 4% paraformaldehyde, stained with a rabbit anti-IE1 antibody followed by an anti-rabbit Alexa 647, and analyzed using the Celigo cytometer. The DMSO condition that was not aspirated post binding was set as 100% infection.
We next examined whether pre-treating cells with MBX-4992 can limit virus infection. Cells were pre-treated with MBX-4992 or heparin for […] followed by the addition of AD169^R for 30 min at 4° C. The cells were either washed out or unchanged as indicated and replaced with media containing DMSO, MBX-4992, or heparin followed by incubation at 37° C. At 18 hpi, virus infection was evaluated using a Celigo cytometer.

[6] = test system: HSV-2 G; test: Herpes virus panel neutralization, HSV-2; assay type: cell-based, Herpes simplex virus 2
Method: as §1

[7] = test system: CMV strains AD169^R and TB40/E; test: CMV infection assay, strains AD169^R and TB40/E together; assay type: cell-based, Human cytomegalovirus
[8] = test system: HCMV strain AD169^R; test: CMV infection (neutralization) assay, GFP/IE1 readout 24 hpi, AD169^R; assay type: cell-based, Human cytomegalovirus; conditions: Human betaherpesvirus 5, AD169, Fibroblast
Method: Fibroblasts and ARPE-19 cells (10^4) were plated in 96-well plates (Greiner, Monroe, NC). The following day the cells were pretreated for 1 hour at 37° C. with increasing concentrations of the respective novel NAPA compounds described herein or DMSO in triplicate prior to infection with the respective viruses. At 18 hours post infection (hpi) cells were stained using a rabbit anti-IE1 antibody followed by an anti-rabbit Alexa 647 and measured using a Celigo Cytometer (Parsons et al., Antiviral Res., 193:105124 (2021); Stein et al., Nat. Commun., 10:2699 (2019)). Using the DMSO treated cells as 100% infection, the percent infection of the NAPA compound-treated cells was determined. The half maximal inhibitory (IC50) values were calculated using Prism9's nonlinear fit [inhibitor]-vs-response (four parameters) analysis of these averages and extrapolation to the concentration that would produce 50% infection relative to DMSO treatment.
To further evaluate the inhibitory properties of MBXC-4302 against CMV, we utilized the AD169 CMV virus strain containing the UL131-UL128 open reading frame of the HCMV strain TR and expressing EGFP (AD169^R) (Wang D. and Shenk T., Proc. Nat. Acad. Sci., USA, 102:18153-18158 (2005)) and TB40/E infection of human fibroblasts (NHDF) and ARPE-19 epithelial cells in the presence of increasing concentration of compound (FIG. 2A-D). Infection was analyzed 24 hours post infection (hpi) by measuring GFP fluorescence encoded by AD169^R or using an anti-IE1 antibody for staining TB40/E infected cells.
NAPA variants with modified groups were evaluated for inhibition of CMV infection in fibroblasts. AD169^R infected fibroblasts were treated with NAPA compounds MBX-4992, MBXC-4325, MBXC-4330, and MBXC-4336 (0-50 μM) and analyzed for infection at 24 hpi (FIG. 6A-D). The infected cells were probed for IE1 as an indication of virus infection.

| Compound | CC50 at 3 d [1] | SI [2] | IC50 ([2]; Caviid betaherpesvirus 2) | MLMS [3] | inhibition of infection by time of addition [4] | virus infection, drug removed ([5]; cells pre-incubated and compound sequentially removed) | virus infection, drug not removed or added back ([5]; cells pre-treated, drugs not removed or added back to washed-out cells) | SI [6] | IC50 ([6]; Human alphaherpesvirus 2) | infection of trophoblasts ([7]; HRT8svNEO trophoblasts, 24 hpi, IE1 immunostain) | IC50 ([7]; Human betaherpesvirus 5, AD169, read-out: IC50 values ranging) | IC50 [8] |
| --- | --- | --- | --- | --- | --- | --- | --- | --- | --- | --- | --- | --- |
| Cc1nc(Nc2ccc(NC(=O)c3ccco3)cc2)cc(N2CCCC2)n1 [MBX-4992] | > 100 µM | <4 | > 30 µM | 49% | most effective at preventing infection when introduced prior to and within 30 mpi | do not significantly impact infection | significantly inhibited virus infection | 1 | > 150 µM | limited infection | 1.9 to 4.8 µM |  |
| Cc1nc(Nc2cccc(NC(=O)c3ccco3)c2)cc(N2CCCCC2)n1 [MBXC-4336] |  |  |  |  |  |  |  |  |  |  |  | 2.9 µM |
